Measurements taken from ChEMBL document CHEMBL1255503, “Biochemical and biophysical characterization of unique switch pocket inhibitors of p38α” (Bioorg Med Chem Lett, 2010).

molecular target: T1, Mitogen-activated protein kinase 14 (Homo sapiens, UniProt Q16539)
T1 sequence (Q16539 whole entry): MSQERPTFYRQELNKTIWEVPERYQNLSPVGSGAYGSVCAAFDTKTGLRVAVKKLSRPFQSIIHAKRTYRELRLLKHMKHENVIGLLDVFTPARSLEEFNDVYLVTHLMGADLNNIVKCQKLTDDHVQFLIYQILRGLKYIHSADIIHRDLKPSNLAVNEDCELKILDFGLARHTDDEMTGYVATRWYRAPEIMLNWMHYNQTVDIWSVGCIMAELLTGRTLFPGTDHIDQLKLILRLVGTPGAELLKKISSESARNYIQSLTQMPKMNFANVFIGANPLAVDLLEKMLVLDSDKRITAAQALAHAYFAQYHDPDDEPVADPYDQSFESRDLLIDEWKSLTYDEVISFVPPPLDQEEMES
Description: Binding affinity to full-length GST-tagged p38alpha by surface plasmon resonance assay

Kd | SMILES
55 nM | Cc1ccc(-n2nc(C(C)(C)C)cc2NC(=O)Nc2cccc3ccccc23)cc1C(=O)NCC#N

molecular target: T1, Mitogen-activated protein kinase 14; remark: another data set of the same source
Description: Binding affinity to full-length GST-tagged p38alpha after 2.5 hrs by TR-FRET competition binding assay

SMILES | Ki
COCCCN1CCC(NC(=O)c2cc(-n3nc(C(C)(C)C)cc3NC(=O)Nc3cccc4ccccc34)ccc2C)CC1 | 336 nM
Cc1ccc(-n2nc(C(C)(C)C)cc2NC(=O)Nc2cccc3ccccc23)cc1C(=O)NCCC1=CCCCC1 | > 3900 nM
Cc1ccc(-n2nc(C(C)(C)C)cc2NC(=O)Nc2cccc3ccccc23)cc1C(=O)NCC#N | 252 nM
Cc1ccc(-n2nc(C(C)(C)C)cc2NC(=O)Nc2cccc3ccccc23)cc1C(=O)NCCCN1CCCC1 | 301 nM
CCN(CCN(C)C)C(=O)c1cc(-n2nc(C(C)(C)C)cc2NC(=O)Nc2cccc3ccccc23)ccc1C | 735 nM
Cc1ccc(-n2nc(C(C)(C)C)cc2NC(=O)Nc2cccc3ccccc23)cc1C(=O)N(CCCN)C(C)C | 312 nM
Cc1ccc(-n2nc(C(C)(C)C)cc2NC(=O)Nc2cccc3ccccc23)cc1C(=O)N(CCCN)C1CCCCC1 | 89 nM
COc1ccccc1CCNC(=O)c1cc(-n2nc(C(C)(C)C)cc2NC(=O)Nc2cccc3ccccc23)ccc1C | > 3900 nM
Cc1ccc(-n2nc(C(C)(C)C)cc2NC(=O)Nc2cccc3ccccc23)cc1C(=O)NCCN1CCN(C)CC1 | 140 nM

Second part, the molecule after the results:

Ki | SMILES
112 nM | Cc1ccc(-n2nc(C(C)(C)C)cc2NC(=O)Nc2cccc3ccccc23)cc1C(=O)N[C@@H]1CS(=O)(=O)C[C@H]1O
291 nM | Cc1ccc(-n2nc(C(C)(C)C)cc2NC(=O)Nc2cccc3ccccc23)cc1C(=O)NCCCN1CCOCC1
433 nM | Cc1ccc(-n2nc(C(C)(C)C)cc2NC(=O)Nc2cccc3ccccc23)cc1C(=O)NCCNc1ccccc1
786 nM | Cc1ccc(-n2nc(C(C)(C)C)cc2NC(=O)Nc2cccc3ccccc23)cc1C(=O)NCC(CC(C)C)C(N)=O (stereo not drawn)
885 nM | Cc1ccc(-n2nc(C(C)(C)C)cc2NC(=O)Nc2cccc3ccccc23)cc1C(=O)NC1CCN(CCN2CCOCC2)CC1
> 3900 nM | COc1ccc(CCNC(=O)c2cc(-n3nc(C(C)(C)C)cc3NC(=O)Nc3cccc4ccccc34)ccc2C)cc1
327 nM | Cc1ccc(-n2nc(C(C)(C)C)cc2NC(=O)Nc2cccc3ccccc23)cc1C(=O)NCc1ccncn1
471 nM | Cc1ccc(-n2nc(C(C)(C)C)cc2NC(=O)Nc2cccc3ccccc23)cc1C(=O)NC[C@@H](CO)C(C)C
